Data taken from US20230312528A1, “2-OXO-IMIDAZOLIDINE-4-CARBOXAMIDES AS NAV1.8 INHIBITORS” (Merck Sharp & Dohme LLC, priority 2020, published 2023).

Each compound was assayed against human NaV1.8 (Homo sapiens (Human), UniProt Q9Y5Y9) (assay: Nav1.8 Qube automated patch-clamp assay). Settings: human NaV1.8 stably expressed in HEK 293 cells; automated 384-well patch-clamp; resting or inactivated state not specified.
Assay type: cell-based
Summary of the method: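 Human NaV1.8 in HEK293 cells, automated whole-cell patch clamp at room temperature: 1 Hz train of ten 20 ms pulses to 10 mV from −90 mV, repolarization to −67 mV. First- and tenth-pulse peak currents gave resting and inactivated-state IC50 values via Hill fits.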

human NaV1.8, sequence (Q9Y5Y9 whole entry): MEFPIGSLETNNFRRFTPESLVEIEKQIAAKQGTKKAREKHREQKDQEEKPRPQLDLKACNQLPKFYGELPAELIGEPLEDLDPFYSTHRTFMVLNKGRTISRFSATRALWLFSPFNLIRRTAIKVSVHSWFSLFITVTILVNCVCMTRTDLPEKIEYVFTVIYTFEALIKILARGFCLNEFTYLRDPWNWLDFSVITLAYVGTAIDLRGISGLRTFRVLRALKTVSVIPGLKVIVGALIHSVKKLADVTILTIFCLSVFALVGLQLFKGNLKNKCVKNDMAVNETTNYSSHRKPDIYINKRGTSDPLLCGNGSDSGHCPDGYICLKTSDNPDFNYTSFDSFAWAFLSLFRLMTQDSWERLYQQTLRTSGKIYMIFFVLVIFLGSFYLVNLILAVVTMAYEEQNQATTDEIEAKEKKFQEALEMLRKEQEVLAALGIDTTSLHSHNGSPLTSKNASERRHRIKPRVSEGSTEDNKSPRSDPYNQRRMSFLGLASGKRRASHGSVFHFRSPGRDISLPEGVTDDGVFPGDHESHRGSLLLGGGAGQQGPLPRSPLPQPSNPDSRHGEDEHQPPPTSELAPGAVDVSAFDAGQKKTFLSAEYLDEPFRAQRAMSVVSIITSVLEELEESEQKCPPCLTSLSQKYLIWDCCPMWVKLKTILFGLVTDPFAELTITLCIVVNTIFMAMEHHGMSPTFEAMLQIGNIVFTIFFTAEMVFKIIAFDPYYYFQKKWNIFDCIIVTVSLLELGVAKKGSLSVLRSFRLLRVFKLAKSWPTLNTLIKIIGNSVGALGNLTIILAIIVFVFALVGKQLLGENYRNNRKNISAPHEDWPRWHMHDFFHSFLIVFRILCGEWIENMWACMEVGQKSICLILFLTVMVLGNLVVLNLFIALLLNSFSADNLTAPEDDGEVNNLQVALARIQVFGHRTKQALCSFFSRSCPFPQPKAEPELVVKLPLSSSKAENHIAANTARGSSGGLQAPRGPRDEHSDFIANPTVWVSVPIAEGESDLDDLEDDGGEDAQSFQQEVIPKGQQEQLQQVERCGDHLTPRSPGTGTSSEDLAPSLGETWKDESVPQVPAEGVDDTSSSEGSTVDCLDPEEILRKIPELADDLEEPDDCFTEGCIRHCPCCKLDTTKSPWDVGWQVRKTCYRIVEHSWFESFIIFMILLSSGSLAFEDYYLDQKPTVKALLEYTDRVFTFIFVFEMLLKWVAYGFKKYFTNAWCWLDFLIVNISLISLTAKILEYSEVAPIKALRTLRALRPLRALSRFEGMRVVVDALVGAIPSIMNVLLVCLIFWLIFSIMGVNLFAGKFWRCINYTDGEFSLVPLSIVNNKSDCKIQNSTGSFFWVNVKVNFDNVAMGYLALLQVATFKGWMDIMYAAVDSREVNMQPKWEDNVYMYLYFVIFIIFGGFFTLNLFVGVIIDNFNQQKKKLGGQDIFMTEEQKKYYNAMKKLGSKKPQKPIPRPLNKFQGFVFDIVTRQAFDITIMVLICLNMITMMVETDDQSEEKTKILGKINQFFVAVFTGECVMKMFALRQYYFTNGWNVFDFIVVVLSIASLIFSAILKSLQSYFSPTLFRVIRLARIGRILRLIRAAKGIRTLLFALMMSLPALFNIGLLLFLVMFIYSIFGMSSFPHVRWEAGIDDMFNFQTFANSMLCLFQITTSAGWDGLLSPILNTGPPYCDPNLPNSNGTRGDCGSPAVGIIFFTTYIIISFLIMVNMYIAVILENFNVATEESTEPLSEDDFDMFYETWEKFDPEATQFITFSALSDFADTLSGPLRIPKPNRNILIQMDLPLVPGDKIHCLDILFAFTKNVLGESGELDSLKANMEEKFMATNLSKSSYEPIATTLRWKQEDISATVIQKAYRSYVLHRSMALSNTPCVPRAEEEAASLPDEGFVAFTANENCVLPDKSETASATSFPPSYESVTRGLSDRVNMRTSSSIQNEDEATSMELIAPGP

| SMILES | IC50 |
| --- | --- |
| Cc1nc2ccc(C(NC(=O)[C@@H]3CNC(=O)N3)c3ccc(Cl)cc3)cc2o1 (single isomer, unassigned) [Example 83A, (S)-N-((R or S)-(4-chlorophenyl)(2-methylbenzo[d]oxazol-6-yl)methyl)-2-oxoimidazolidine-4-carboxamide] | 147 nM |
| O=C1NC[C@@H](C(=O)NC(COc2ccc(F)c(Cl)c2)c2ccc(F)c(Cl)c2)N1 (single isomer, unassigned) [Example 1A, (S)—N—((R or S)-2-(3-chloro-4-fluorophenoxy)-1-(3-chloro-4-fluorophenyl)ethyl)-2-oxoimidazolidine-4-carboxamide] | 4 nM |
| O=C1NC[C@@H](C(=O)NC(c2ccc(F)c(Cl)c2)c2csc(C3(C(F)(F)F)CC3)n2)N1 (single isomer, unassigned) [Example 16A, (S)-N-((R or S)-(3-choro-4-fluoro-phenyl)(2-(1-(trifluoromethyl)cyclopropyl)thiazol-4-yl)methyl)-2-oxoimidazolidine-4-carboxamide] | 1.1 nM |
| O=C1NC[C@@H](C(=O)NC(c2ccc(Cl)cc2)c2ccc3ncsc3c2)N1 (mixture of isomers) [Example 81, (4S)-N-(benzo[d]thiazol-6-yl(4-chlorophenyl)methyl)-2-oxoimidazolidine-4-carboxamide] | 54 nM |
| O=C1NC[C@@H](C(=O)NC(c2ccc(OC(F)(F)F)c(Cl)c2)c2ccc(OC(F)(F)F)cn2)N1 (single isomer, unassigned) [Example 39B, (S)—N—((R or S)-(3-chloro-4-(trifluoromethoxy)phenyl)(5-(trifluoromethoxy)pyridin-2-yl)methyl)-2-oxoimidazolidine-4-carboxamide] | 2.5 nM |
